From ChEMBL document CHEMBL5352488, “Development of novel S-N3-DABO derivatives as potent non-nucleoside reverse transcriptase inhibitors with improved potency and selectivity” (Eur J Med Chem, 2023) come the findings set out here.

As a reminder, the EC50 is the concentration that produces a half-maximal response. The term CC50 denotes the concentration that lowers cell viability or growth by half. In general, IC50 refers to the point on the concentration scale where inhibition reaches its midpoint. In general, inhibition refers to the drop in the measured response relative to a control, in per cent.

Data set [1] has as its system Human immunodeficiency virus 1. Put plainly: Anti-HIV activity against drug resistant HIV-1 harboring E138K mutant infected in human MT4 cells assessed as inhibition of virus-induced cytopathic effect by MTT assay. It is filed as functional, organism-based. As to conditions: Human immunodeficiency virus 1, MT4. In general terms: Damage to the host cells serves as the signal in cytopathic effect assays.

Data set [2] can be described thus: Selectivity index, ratio of CC50 for cytotoxicity against human MT4 cells assessed as reduction in cell viability by MTT assay to EC50 for anti-HIV activity against wild type HIV-1 IIIB infected in human MT4 cells assessed as inhibition of virus-induced cytopathic effect by MTT assay. It is filed as toxicity, cell-based. As to conditions: read-out: Ratio CC50/EC50.

In data set [3] the test system is Human immunodeficiency virus 1. Put plainly: Anti-HIV activity against drug resistant HIV-1 harboring Y181C mutant infected in human MT4 cells assessed as inhibition of virus-induced cytopathic effect by MTT assay. It is filed as functional, organism-based. Conditions: Human immunodeficiency virus 1, MT4.
Data set [4] has as its system Human immunodeficiency virus 1. Put plainly: Anti-HIV activity against drug resistant HIV-1 harboring F227L/V106A mutant infected in human MT4 cells assessed as inhibition of virus-induced cytopathic effect by MTT assay. It is filed as functional, organism-based. Conditions: Human immunodeficiency virus 1, MT4.
Data set [5] deals with Human immunodeficiency virus 1. Put plainly: Anti-HIV activity against drug resistant HIV-1 harboring L100I mutant infected in human MT4 cells assessed as inhibition of virus-induced cytopathic effect by MTT assay. It is filed as functional, organism-based. Conditions: Human immunodeficiency virus 1, MT4.
Data set [6] is described as follows: Cytotoxicity against human MT4 cells assessed as reduction in cell viability by MTT assay. It is filed as toxicity, cell-based. (Tetrazolium assays rely on reduction of a dye to a coloured formazan, in cell work by metabolically active cells.)
For data set [7], the system named is Human immunodeficiency virus 1. Put plainly: Anti-HIV activity against wild type HIV-1 IIIB infected in human MT4 cells assessed as inhibition of virus-induced cytopathic effect by MTT assay. It is filed as functional, organism-based. As to conditions: Human immunodeficiency virus 1, IIIB.
Data set [8] concerns Human immunodeficiency virus 1. Briefly: Anti-HIV activity against drug resistant HIV-1 harboring Y188L mutant infected in human MT4 cells assessed as inhibition of virus-induced cytopathic effect by MTT assay. It counts as functional, organism-based. Conditions: Human immunodeficiency virus 1, MT4.
Data set [9] relates to Human immunodeficiency virus 1. Put plainly: Anti-HIV activity against drug resistant HIV-1 harboring K103N mutant infected in human MT4 cells assessed as inhibition of virus-induced cytopathic effect by MTT assay. It counts as functional, organism-based. As to conditions: Human immunodeficiency virus 1, MT4.
The target of data set [10] is Human immunodeficiency virus type 1 reverse transcriptase (Human immunodeficiency virus 1, UniProt Q72547). Put plainly: Inhibition of wild type HIV-1 reverse transcriptase assessed as assessed as inhibition of biotin deoxyuridine triphosphate incorporation into […].
For data set [11], the target named is T1, Cytochrome P450 3A4 (Homo sapiens, UniProt P08684). Briefly: Inhibition of CYP3A4T in human liver microsomes using testosterone as substrate measured after 10 mins in presence of NADPH. It counts as ADME, Microsome.
The nature of data set [12]: Acute toxicity in mouse assessed as histopathological changes in heart at 1000 mg/kg, po by Hematoxylin and eosin staining based microscopy. Conditions: in vivo. It is filed as organism-based.
In another data set the target is Cytochrome P450 2D6 (Homo sapiens, UniProt P10635). Briefly: Inhibition of CYP2D6 in human liver microsomes using dextromethorphan as substrate measured after 10 mins in presence of NADPH. It counts as ADME, Microsome.
The target of data set [13] is T1, Cytochrome P450 3A4. Put plainly: Inhibition of CYP3A4M in human liver microsomes using midazolam as substrate measured after 10 mins in presence of NADPH. It is filed as ADME, Microsome. Background: Liver microsomes are a subcellular fraction often used to study metabolism.
The next data set addresses hERG (KCNH2) (Homo sapiens, UniProt Q12809). Put plainly: Inhibition of human ERG expressed in CHO cells at 40 uM by automated patch-clamp electrophysiological assay. As to conditions: CHO cells that express hERG. It counts as toxicity, cell-based.
A short description of data set [14]: Acute toxicity in mouse assessed as change in body weight at 1000 mg/kg, po. It is filed as organism-based. Conditions: in vivo.
Data set [15] can be described thus: Acute toxicity in mouse assessed as histopathological changes in spleen at 1000 mg/kg, po by Hematoxylin and eosin staining based microscopy. It is filed as organism-based. Conditions: in vivo.
The nature of data set [16]: Acute toxicity in mouse assessed as histopathological changes in lung at 1000 mg/kg, po by Hematoxylin and eosin staining based microscopy. It counts as organism-based. As to conditions: in vivo.
Data set [17] can be described thus: Acute toxicity in mouse assessed as histopathological changes in liver at 1000 mg/kg, po by Hematoxylin and eosin staining based microscopy. It is filed as organism-based. Conditions: in vivo.
Data set [18] can be described thus: Acute toxicity in mouse assessed as histopathological changes in brain at 1000 mg/kg, po by Hematoxylin and eosin staining based microscopy. It counts as organism-based. Conditions: in vivo.
The target in a further data set is Cytochrome P450 2C9 (Homo sapiens, UniProt P11712). Briefly: Inhibition of CYP2C9 in human liver microsomes using tolbutamide as substrate measured after 10 mins in presence of NADPH. It counts as ADME, Microsome.
In a further data set the target is T2, Cytochrome P450 1A2 (Homo sapiens, UniProt P05177).
T2 sequence (P05177 whole entry): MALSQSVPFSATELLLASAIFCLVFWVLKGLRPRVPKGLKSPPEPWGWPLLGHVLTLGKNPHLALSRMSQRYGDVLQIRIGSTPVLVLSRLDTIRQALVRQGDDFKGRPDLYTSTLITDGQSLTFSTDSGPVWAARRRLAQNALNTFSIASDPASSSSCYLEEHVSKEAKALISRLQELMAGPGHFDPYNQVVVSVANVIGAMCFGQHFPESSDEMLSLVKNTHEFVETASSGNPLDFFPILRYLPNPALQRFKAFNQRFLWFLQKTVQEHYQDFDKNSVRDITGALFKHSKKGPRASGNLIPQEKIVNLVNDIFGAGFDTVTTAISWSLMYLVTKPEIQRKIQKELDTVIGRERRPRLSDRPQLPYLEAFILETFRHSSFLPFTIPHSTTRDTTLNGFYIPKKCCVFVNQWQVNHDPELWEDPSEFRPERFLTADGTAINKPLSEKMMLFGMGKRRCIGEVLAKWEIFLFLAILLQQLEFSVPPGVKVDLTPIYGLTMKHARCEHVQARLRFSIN
Put plainly: Inhibition of CYP1A2 in human liver microsomes using phenacetin as substrate measured after 10 mins in presence of NADPH. It counts as ADME, Microsome.

The target of another data set is Cytochrome P450 2C19 (Homo sapiens, UniProt P33261). Briefly: Inhibition of CYP2C19 in human liver microsomes using mephenytoin as substrate measured after 10 mins in presence of NADPH. It is filed as ADME, Microsome.
The nature of data set [19]: Acute toxicity in mouse assessed as histopathological changes in kidney at 1000 mg/kg, po by Hematoxylin and eosin staining based microscopy. It counts as organism-based. Conditions: in vivo.

T1 sequence (P08684 whole entry): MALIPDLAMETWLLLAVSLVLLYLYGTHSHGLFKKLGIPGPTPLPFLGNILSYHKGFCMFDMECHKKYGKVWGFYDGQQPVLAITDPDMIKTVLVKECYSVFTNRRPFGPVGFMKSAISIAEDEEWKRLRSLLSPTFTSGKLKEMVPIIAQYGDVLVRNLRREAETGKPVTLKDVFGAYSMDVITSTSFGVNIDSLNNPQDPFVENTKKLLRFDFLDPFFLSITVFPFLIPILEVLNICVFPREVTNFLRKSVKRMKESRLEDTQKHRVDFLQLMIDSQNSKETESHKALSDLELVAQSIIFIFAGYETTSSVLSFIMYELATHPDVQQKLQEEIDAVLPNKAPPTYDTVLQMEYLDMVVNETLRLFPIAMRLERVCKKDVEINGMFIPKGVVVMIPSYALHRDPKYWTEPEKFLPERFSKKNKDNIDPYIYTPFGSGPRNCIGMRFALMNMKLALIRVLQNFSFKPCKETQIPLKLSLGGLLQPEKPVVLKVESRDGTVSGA
Chain of Cytochrome P450 2C9 (P11712 whole entry): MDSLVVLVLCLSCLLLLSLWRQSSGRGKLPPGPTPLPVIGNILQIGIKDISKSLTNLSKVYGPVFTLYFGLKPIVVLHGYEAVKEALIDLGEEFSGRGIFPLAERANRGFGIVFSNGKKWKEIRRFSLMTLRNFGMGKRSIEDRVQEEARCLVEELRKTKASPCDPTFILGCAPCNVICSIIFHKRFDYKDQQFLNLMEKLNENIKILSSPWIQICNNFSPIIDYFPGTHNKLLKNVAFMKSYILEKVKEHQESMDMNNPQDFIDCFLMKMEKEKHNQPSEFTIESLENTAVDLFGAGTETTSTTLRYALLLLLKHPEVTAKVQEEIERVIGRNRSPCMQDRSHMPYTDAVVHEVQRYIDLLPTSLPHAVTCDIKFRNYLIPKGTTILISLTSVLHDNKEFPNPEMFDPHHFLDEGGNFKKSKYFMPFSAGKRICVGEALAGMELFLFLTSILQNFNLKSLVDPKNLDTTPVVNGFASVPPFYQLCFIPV
Chain of Cytochrome P450 2D6 (P10635 whole entry): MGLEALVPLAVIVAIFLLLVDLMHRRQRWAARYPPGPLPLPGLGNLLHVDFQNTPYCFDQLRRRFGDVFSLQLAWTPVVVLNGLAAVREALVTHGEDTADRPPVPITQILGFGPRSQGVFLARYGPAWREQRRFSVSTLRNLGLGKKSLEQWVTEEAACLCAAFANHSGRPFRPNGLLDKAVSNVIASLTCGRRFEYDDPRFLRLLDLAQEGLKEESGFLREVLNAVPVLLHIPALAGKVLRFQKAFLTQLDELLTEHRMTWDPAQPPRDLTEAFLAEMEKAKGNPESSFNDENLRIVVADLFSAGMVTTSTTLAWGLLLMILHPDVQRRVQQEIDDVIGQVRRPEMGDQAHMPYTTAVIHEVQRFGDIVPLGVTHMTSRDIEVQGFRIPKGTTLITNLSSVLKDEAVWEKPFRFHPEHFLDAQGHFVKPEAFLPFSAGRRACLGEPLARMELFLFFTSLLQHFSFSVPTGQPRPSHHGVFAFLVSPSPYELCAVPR
Chain of Cytochrome P450 2C19 (P33261 whole entry): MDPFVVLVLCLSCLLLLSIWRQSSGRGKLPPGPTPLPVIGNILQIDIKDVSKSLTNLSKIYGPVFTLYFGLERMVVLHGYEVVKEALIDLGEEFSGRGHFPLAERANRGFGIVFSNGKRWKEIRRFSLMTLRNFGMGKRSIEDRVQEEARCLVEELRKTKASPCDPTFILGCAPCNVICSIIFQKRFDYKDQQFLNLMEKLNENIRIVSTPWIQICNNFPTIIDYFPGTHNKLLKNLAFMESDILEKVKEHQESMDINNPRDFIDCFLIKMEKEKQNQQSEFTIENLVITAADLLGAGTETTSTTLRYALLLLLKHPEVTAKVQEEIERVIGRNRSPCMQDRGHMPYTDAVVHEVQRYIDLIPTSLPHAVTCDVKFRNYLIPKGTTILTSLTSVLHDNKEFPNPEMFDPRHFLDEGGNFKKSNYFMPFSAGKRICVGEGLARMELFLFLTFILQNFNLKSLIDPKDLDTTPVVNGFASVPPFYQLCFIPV
Chain of hERG (KCNH2) (Q12809 whole entry): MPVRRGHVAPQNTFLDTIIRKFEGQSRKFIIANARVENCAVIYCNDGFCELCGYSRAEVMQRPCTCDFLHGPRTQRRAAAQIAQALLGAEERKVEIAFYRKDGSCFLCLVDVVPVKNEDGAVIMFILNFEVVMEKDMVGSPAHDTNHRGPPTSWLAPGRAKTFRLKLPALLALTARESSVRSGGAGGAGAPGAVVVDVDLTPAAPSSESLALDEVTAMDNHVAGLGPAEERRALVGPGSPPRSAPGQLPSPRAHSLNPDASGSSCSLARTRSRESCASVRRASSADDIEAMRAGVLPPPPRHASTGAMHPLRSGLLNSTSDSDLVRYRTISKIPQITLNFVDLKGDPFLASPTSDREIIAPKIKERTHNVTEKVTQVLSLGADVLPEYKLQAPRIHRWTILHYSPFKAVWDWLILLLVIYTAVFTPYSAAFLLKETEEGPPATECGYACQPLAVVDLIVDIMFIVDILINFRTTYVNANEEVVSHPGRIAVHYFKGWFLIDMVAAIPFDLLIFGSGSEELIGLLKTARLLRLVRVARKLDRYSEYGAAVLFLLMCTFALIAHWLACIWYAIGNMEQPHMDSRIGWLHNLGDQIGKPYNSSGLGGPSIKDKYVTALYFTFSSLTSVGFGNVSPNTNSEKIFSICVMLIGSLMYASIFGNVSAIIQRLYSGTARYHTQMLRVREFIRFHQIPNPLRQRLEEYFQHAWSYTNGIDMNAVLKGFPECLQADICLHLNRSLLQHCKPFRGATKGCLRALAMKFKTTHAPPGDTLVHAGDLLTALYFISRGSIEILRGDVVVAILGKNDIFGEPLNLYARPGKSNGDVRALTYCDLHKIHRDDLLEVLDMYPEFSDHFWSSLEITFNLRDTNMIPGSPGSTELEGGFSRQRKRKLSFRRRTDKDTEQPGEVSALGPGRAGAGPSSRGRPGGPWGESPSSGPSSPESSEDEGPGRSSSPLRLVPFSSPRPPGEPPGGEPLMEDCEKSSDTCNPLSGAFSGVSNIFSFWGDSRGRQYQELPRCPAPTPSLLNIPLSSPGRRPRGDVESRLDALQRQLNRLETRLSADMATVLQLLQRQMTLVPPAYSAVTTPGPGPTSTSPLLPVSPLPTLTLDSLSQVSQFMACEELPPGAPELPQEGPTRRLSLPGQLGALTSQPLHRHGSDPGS

For the compound `CCc1c(C(N=[N+]=[N-])c2ccc(C)cc2)nc(SC(C)C)[nH]c1=O` (stereo not drawn), the EC50 in data set [1] was 0.45 µM; in [3], 114 µM; in data set [4], 314 µM; in data set [5], 0.13 µM; in data set [7], 0.16 µM; in data set [8], above 364 µM. In addition, the EC50 in data set [9] is 3.9 µM. For the same compound, the selectivity ratio in data set [2] was above 2300. Also, the 50% cytotoxic concentration (CC50) in data set [6] is above 364 µM. Moreover, the IC50 in data set [10] stood at 0.17 µM.
Consider `CCc1c(C(N=[N+]=[N-])c2cc(C)cc(C)c2)nc(SC(C)C)[nH]c1=O` (stereo not drawn), for which the EC50 was 0.41 µM in [1]; 4.68 µM in data set [3]; 14.3 µM in data set [4]; 0.97 µM in data set [5]; 0.067 µM in [7]; above 350 µM in data set [8]. For the same compound, the EC50 in data set [9] amounted to 4.82 µM. The selectivity ratio in data set [2] was above 5240. Moreover, in data set [6], the CC50 is above 350 µM. In [10], the IC50 was found to be 0.1 µM.
Regarding `Cc1cc(C)cc(C(N=[N+]=[N-])c2nc(SC(C)C)[nH]c(=O)c2C)c1` (stereo not drawn), the EC50 is 0.26 µM in [1]; 2.28 µM in data set [3]; 7.88 µM in [4]; 1.05 µM in [5]; 0.053 µM in data set [7]; 203 µM in data set [8]. Besides, the EC50 in [9] is 2.51 µM. The IC50 at Cytochrome P450 3A4 [11] was above 50 µM; on Cytochrome P450 2D6 it was above 50 µM; at Cytochrome P450 3A4 [13], above 50 µM; at Cytochrome P450 2C9, 35.8 µM; at Cytochrome P450 1A2 it was above 50 µM; on Cytochrome P450 2C19 it was 27.1 µM. In [10], the IC50 worked out at 0.08 µM. In addition, the Activity result in data set [12], in data set [14], in data set [15], in data set [16], in [17] and in data set [18] was “Non-Toxic” each time. Further, in data set [19], the Activity result is “Non-Toxic”. Also, the selectivity ratio in [2] is above 6820. At 40 µM the inhibition on hERG (KCNH2) was 41.4%. For the same compound, the half-maximal cytotoxic concentration (CC50) in [6] was above 364 µM.
`CCc1c(C(N=[N+]=[N-])c2cccc3ccccc23)nc(SC(C)C)[nH]c1=O` (stereo not drawn): the EC50 in data set [1] was 7.34 µM; in data set [3], 17.1 µM; in data set [4], above 10.2 µM; in [5] it was 9.18 µM; in [7], 0.96 µM; in data set [8], 55.8 µM. For the same compound, the EC50 in data set [9] is 71.6 µM. Further, in data set [2], the selectivity ratio was 81. In addition, the CC50 in [6] was found to be 77.7 µM.
